# Laboratory results from ChEMBL document CHEMBL6134865, “Rational Design of Methylene Blue-Raloxifene Conjugates for Efficient Breast Tumor Elimination Triggered by ERα Degradation” (J Med Chem, 2025).
# The source made the active and inactive calls. The calls are words filed in the database; no cut-off is given here.
# What was measured:
# MCF7 [1] = assay: Induction of ROS generation in human MCF7 cells assessed as cell percentage with elevated ROS incubated for 6 hrs followed by irradiation with 660 nm 0.4 W/cm2 light for 5 min by DCFH-DA probe based flow cytometric analysis; format: functional; details: dose 0.1-5 µM, time 365.0 min
# [2] = Toxicity in female BALB/c mouse xenografted with human MCF7 cells assessed as change in ALT level at 5 mg/kg, iv measured after 14 days; format: organism-based; details: in vivo, 336 h, time 14 day
# [3] = Toxicity in female BALB/c mouse xenografted with human MCF7 cells assessed as change in blood urea nitrogen level at 5 mg/kg, iv measured after 14 days with 660 nm 0.4 W/cm2 light irradiation for 5 mins at 4 hrs of incubation time; format: organism-based; details: in vivo, 336 h, time 14 day
# [4] = Toxicity in female BALB/c mouse xenografted with human MCF7 cells assessed as change in ALT level at 5 mg/kg, iv measured after 14 days with 660 nm 0.4 W/cm2 light irradiation for 5 mins at 4 hrs of incubation time; format: organism-based; details: in vivo, 336 h, time 14 day
# in vivo [5] = details: Sprague-Dawley, rat, po, 15 mg/kg
# Description: AUC (0 to infinity) in Sprague-Dawley rat at 15 mg/kg, po administered via gavage and measured after 0.5 to 168 hrs by LC-MS analysis
# Mus musculus = assay: In vivo induction of ERalpha degradation in female BALB/c mouse xenografted with human MCF7 cells assessed as decrease in ERalpha level in tumor at 5 mg/kg, iv measured after 14 days with 660 nm 0.4 W/cm2 light irradiation for 5 mins at 4 hrs of incubation time by DAPI staining based immunofluorescence analysis; format: functional, organism-based; details: time 14.0 day
# [6] = Induction of ROS generation in water assessed as decrease in ABDA absorption peak at 1 uM irradiated with 660 nm 0.2 to 1.5 W/cm2 light for 5 mins by ABDA probe based UV-vis absorption spectra analysis; format: functional
# MCF7 [7] = assay: cells; details: Homo sapiens, MCF7, 48 h
# Description: Antiproliferative activity against human MCF7 cells assessed as inhibition of cell proliferation incubated for 48 hrs by MTT assay
# in vivo [8] = details: Sprague-Dawley, rat, po, 15 mg/kg; remark: listed apart in the source
# Description: Tmax in Sprague-Dawley rat at 15 mg/kg, po administered via gavage and measured after 0.5 to 168 hrs by LC-MS analysis
# MCF7 [9] = assay: Induction of ROS generation in human MCF7 cells assessed as cell percentage with elevated ROS at 1 uM incubated for 6 hrs followed by irradiation with 660 nm 0.4 W/cm2 light for 4 min by DCFH-DA probe based flow cytometric analysis (reference value: 0.2 %); format: functional; details: time 364 min, 6.067 h
# MCF7 [10] = assay: Photothermal effect in human MCF7 cells assessed as temperature of cell culture medium at 1 uM irradiated with 660 nm 0.4 W/cm2 light for 3 min (reference value: 26 degreeC); format: ADME, cell-based; details: mcf7, 0.05 h
# in vivo [11] = details: Sprague-Dawley, rat, iv, 5 mg/kg
# Description: AUC (0 to infinity) in Sprague-Dawley rat at 5 mg/kg, iv measured after 0.5 to 168 hrs by LC-MS analysis
# [12] = Induction of ROS generation in water at 1 uM irradiated with 660 nm 0.4 W/cm2 light up to 180 sec by DCFH probe based fluorescence spectra analysis; format: functional
# MCF7 [13] = assay: cells; details: Homo sapiens, MCF7, light or radiation study
# Description: Antiproliferative activity against human MCF7 cells assessed as inhibition of cell proliferation incubated for 48 hrs with 660 nm 0.4 W/cm2 light irradiation for 3 min at 6th hr of incubation time by MTT assay
# [14] = Photothermal effect of compound in water assessed as increase in temperature of solution at 1 uM incubated for 5 mins in presence of presence of 660 nm 0.2 to 1.5 W/cm2 light; format: functional
# [15] = Drug uptake in female BALB/c mouse kidney xenografted with human MCF7 cells at 5 mg/kg, iv measured after 4 hrs by fluorescence imaging analysis; format: ADME, organism-based; details: in vivo
# MCF7 [16] = assay: Induction of ROS generation in human MCF7 cells assessed as increase in green fluorescence at 1 uM incubated for 6 hrs followed by irradiation with 660 nm 0.4 W/cm2 light for 5 min by fluorescence imaging analysis; format: functional, cell-based; details: time 365.0 min
# [17] = Induction of ROS generation in water assessed as decrease in ABDA absorption peak at 5 uM irradiated with 660 nm 0.4 W/cm2 light up to 5 mins by ABDA probe based UV-vis absorption spectra analysis; format: functional
# [18] = Toxicity in female BALB/c mouse xenografted with human MCF7 cells assessed as effect on spleen histology at 5 mg/kg, iv measured after 14 days by H and E staining based analysis; format: organism-based; details: in vivo, 336 h, time 14 day
# [19] = Toxicity in female BALB/c mouse xenografted with human MCF7 cells assessed as change in lymphocytes level at 5 mg/kg, iv measured after 14 days; format: organism-based; details: in vivo, 336 h, time 14 day
# [20] = Toxicity in female BALB/c mouse xenografted with human MCF7 cells assessed as change in AST level at 5 mg/kg, iv measured after 14 days with 660 nm 0.4 W/cm2 light irradiation for 5 mins at 4 hrs of incubation time; format: organism-based; details: in vivo, 336 h, time 14 day
# [21] = Toxicity in female BALB/c mouse xenografted with human MCF7 cells assessed as change in platelet level at 5 mg/kg, iv measured after 14 days; format: organism-based; details: in vivo, 336 h, time 14 day
# MCF7 [22] = assay: Photothermal effect in human MCF7 cells assessed as temperature of cell culture medium at 1 uM irradiated with 660 nm 0.4 W/cm2 light for 4 min (reference value: 26 degreeC); format: ADME, cell-based; details: mcf7, 4 min
# MCF7 [23] = assay: Antitumor activity against human MCF7 cells xenografted in female BALB/c mouse model assessed as tumor growth inhibition at 5 mg/kg, iv measured after 14 days relative to control; format: functional; details: MCF7, 336 h, time 14 day, read-out: TGI
# in vivo [24] = details: Sprague-Dawley, rat, po, 15 mg/kg; remark: listed apart in the source
# Description: Cmax in Sprague-Dawley rat at 15 mg/kg, po administered via gavage and measured after 0.5 to 168 hrs by LC-MS analysis
# MCF7 [25] = assay: Photothermal effect in human MCF7 cells assessed as temperature of cell culture medium at 1 uM irradiated with 660 nm 0.4 W/cm2 light for 5 min (reference value: 26 degreeC); format: ADME, cell-based; details: mcf7, 5 min
# [26] = Toxicity in female BALB/c mouse xenografted with human MCF7 cells assessed as effect on kidney histology at 5 mg/kg, iv measured after 14 days by H and E staining based analysis; format: organism-based; details: in vivo, 336 h, time 14 day
# [27] = Drug uptake in female BALB/c mouse liver xenografted with human MCF7 cells at 5 mg/kg, iv measured after 4 hrs by fluorescence imaging analysis; format: ADME, organism-based; details: in vivo
# [28] = Toxicity in female BALB/c mouse xenografted with human MCF7 cells assessed as change in creatinine level at 5 mg/kg, iv measured after 14 days; format: organism-based; details: in vivo, 336 h, time 14 day
# MCF7 [29] = assay: Photothermal effect in human MCF7 cells assessed as temperature of cell culture medium at 1 uM irradiated with 660 nm 0.4 W/cm2 light for 2 min (reference value: 26 degreeC); format: ADME, cell-based; details: mcf7, 2 min
# MCF7 [30] = assay: Induction of ROS generation in human MCF7 cells assessed as cell percentage with elevated ROS at 1 uM incubated for 6 hrs followed by irradiation with 660 nm 0.4 W/cm2 light for 2 min by DCFH-DA probe based flow cytometric analysis (reference value: 0.2 %); format: functional; details: time 362 min, 6.033 h
# MCF7 [31] = assay: Photothermal effect in human MCF7 cells assessed as temperature of cell culture medium at 1 uM irradiated with 660 nm 0.4 W/cm2 light for 1 min (reference value: 26 degreeC); format: ADME, cell-based; details: mcf7, 1 min
# MCF7 [32] = assay: cells; details: Homo sapiens, MCF7, light or radiation study; remark: listed apart in the source
# Description: Antiproliferative activity against human MCF7 cells assessed as inhibition of cell proliferation incubated for 48 hrs with 660 nm 0.4 W/cm2 light irradiation for 4 min at 6th hr of incubation time by MTT assay
# [33] = Toxicity in female BALB/c mouse xenografted with human MCF7 cells assessed as change in creatinine level at 5 mg/kg, iv measured after 14 days with 660 nm 0.4 W/cm2 light irradiation for 5 mins at 4 hrs of incubation time; format: organism-based; details: in vivo, 336 h, time 14 day
smiles,measurement,setting,value
CCN(CC)c1ccc2nc3c4ccccc4/c(=N\CCCCCCC(=O)NCCOc4ccc(C(=O)c5c(-c6ccc(O)cc6)sc6cc(O)ccc56)cc4)cc-3sc2c1,Activity,MCF7 [1],Dose-dependent-effect
same,Activity,[2],Non-toxic
same,Activity,[3],Non-toxic
same,Activity,[4],Non-toxic
same,AUC(0-inf),in vivo [5],357 ng·h/mL
same,Activity,Mus musculus,Active; Superior To That Of Faslodex
same,Activity,[6],Active
same,IC50,MCF7 [7],25100 nM
same,Tmax,in vivo [8],6 h
same,Activity,MCF7 [9],47.8%
same,T,MCF7 [10],29 °C
same,AUC(0-inf),in vivo [11],279 ng·h/mL
same,Activity,[12],Active
same,IC50,MCF7 [13],200 nM
same,Activity,[14],Active
same,Drug uptake,[15],Active
same,Activity,MCF7 [16],Active
same,Activity,[17],Active
same,Activity,[18],Non-toxic
same,Activity,[19],Non-toxic
same,Activity,[20],Non-toxic
same,Activity,[21],Non-toxic
same,T,MCF7 [22],30.9 °C
same,inhibition in vivo at 5 mg/kg,MCF7 [23],77.5%
same,Cmax,in vivo [24],17.5 ng/mL
same,T,MCF7 [25],32.5 °C
same,Activity,[26],Non-toxic
same,Drug uptake,[27],Active
same,Activity,[28],Non-toxic
same,T,MCF7 [29],28.4 °C
same,Activity,MCF7 [30],6.5%
same,T,MCF7 [31],27.3 °C
same,IC50,MCF7 [32],160 nM
same,Activity,[33],Non-toxic
